Here are results for 22 compounds from patent US20090318385A1, “Pyrazolopyride derivative and phosphodiesterase ( pde) inhibitors containing the same as active ingredient” (priority 2006, published 2009).

For data set [1], the target named is T1, PDE4B catalytic domain (Homo sapiens, UniProt Q07343).
T1 construct: The cDNA of PDE4B catalytic domain (hereinafter abbreviated as Cat) was isolated from human RNA by RT-PCR; made in house; host or cells: Sf9 insect cells (baculovirus, Bac-to-Bac)
Description: Phosphodiesterase inhibitory activity (recombinant PDE4Bcat, [3H]cAMP). As to conditions: 30° C. for 20 minutes, read-out: IC50 (μmol/L) PDE4. The format is biochemical. The source says: The cDNA of PDE4B catalytic domain (hereinafter abbreviated as Cat) was isolated from human RNA by RT-PCR. The isolated cDNA fragments were inserted into Sf9 insect cells using Gateway system (product of Invitrogen Corporation) and Bac-to-Bac (registered trademark) Baculovirus Expression system (product of Invitrogen Corporation) to express a target PDE protein. The recombinant PDE4Bcat was purified from the culture supernatants or cell extracts of Sf9 cells expressing high levels of the PDE protein by ion exchange chromatography and was used for the following experiments.
A 4 mmol/L solution of each test compound was serially diluted four-fold with a 15% DMSO solution to prepare solutions with concentrations of 15 nmol/L to 4 mmol/L (the final concentrations used in the experiments were 1.5 nmol/L to 400 μmol/L). 10 μL of the prepared test compound solutions, [^3H] cAMP diluted with a buffer solution (40 mmol/L Tris-HCl (pH: 7.4), 10 mmol/L MgCl2), and 40 μL of the recombinant human PDE protein (2×10^−6 units, 1 unit is defined as the amount of PDE that breaks down 1 μmol/L of cAMP in one minute under the conditions of a pH of 7.5 and 30° C.) were added to a 96-well plate. The mixtures were reacted at 30° C. for 20 minutes. Then, the resultant mixtures were reacted at 65° C. for 2 minutes. Subsequently, […] of 1 mg/mL 5′-nucleotidase (Crotalusatrox venom, product of Sigma) was added to the mixtures, and the mixtures were reacted at 30° C. for 10 minutes. After completion of the reaction, 200 μL of a solution of Dowex (300 mg/mL Dowex 1x8-400 (product of Sigma Aldrich), 33% ethanol) was added to the mixtures, and the mixtures were shaken at 4° C. for 20 minutes. Subsequently, 200 μL of MicroScint 20 (product of Packard) was added to the mixtures, and measurement was performed using a scintillation counter (Topcount, product of Packard). IC50 values were calculated using Graph Pad Prism v3.03 (product of GraphPad Software). When 1 μmol/L>the IC50 value≧0.1 μmol/L, the results were represented by “+.” When 0.1 μmol/L>the IC50 value, the results were represented by “++.”

For data set [2], the system named is histamine-induced bronchoconstriction. The experiment in a line: Histamine-induced airway contraction reaction in guinea pigs. The data set is classed as in vivo. As to conditions: test compound 1 mg/kg i.v., histamine 12.5 μg/kg i.v., airflow 30 seconds after administration. Here is the method:
Guinea pigs were anesthetized with pentobarbital (30 mg/kg, i.p.). A cannula for intravenous administration, a cannula for collecting blood and measuring blood pressure, and a tracheal cannula were inserted into the left external jugular vein, right internal carotid artery, and trachea, respectively. The guinea pigs were maintained on artificial respiration under the conditions of 60 times/min and 10 mL/kg/stroke. The airflow from the side branch of the tracheal cannula was measured by a bronchospasm transducer (Ugo-Basile) and recorded on a computer via Power Lab (ADInstruments Japan). The guinea pigs were immobilized with gallamine (10 mg/kg, i.v.), and histamine was administered at 10-minute intervals (12.5 μg/kg, i.v.). After the histamine-induced bronchoconstriction was constant, one of the test compounds (1 mg/kg, i.v.) dissolved in DMSO was administered. We examined the inhibitory action of test compounds on histamine-induced bronchoconstriction 30 seconds after compounds administration. Bronchoconstriction was recorded as the value of airflow, and the results were represented by the ratio of the maximum value of the histamine-induced airflow 30 seconds after the administration to the maximum value of the airflow before the administration. When the inhibition ratio≧90%, the results were represented by “+++.” When 90%>the inhibition ratio≧70%, the results were represented by “++.” When 70%>the inhibition ratio≧30%, the results were represented by “+.”

For data set [3], the system named is total number of leukocytes in bronchoalveolar lavage fluid after LPS inhalation. The experiment in a line: LPS acute inflammation model in rats. The data set is classed as in vivo. To be noted: Rattus norvegicus, Leukocyte, po, 3 mg/kg orally one hour before LPS inhalation, total leukocytes in BALF 3 hours after LPS inhalation, read-out: Inhibition ratio. Here is the method:
3 mg/kg of the compounds were orally administered to rats one hour before inhalation of lipopolysaccharide (LPS) from E. coli serotype 055:B5, rats were inhalted nebulizing LPS solution (50 mL) by nebulizer for 30 minutes. Then, 3 hours after the LPS inhalation, rats were euthanized with 20% urethane (5 ml/rat, i.p.) 5 ml of physiological saline for bronchoalveolar lavage was injected into the bronchoalveolar space through the airway, and the bronchoalveolar space was washed 3 times using a 5 mL syringe. This procedure was repeated twice, and the solution was collected as bronchoalveolar lavage fluid (BALF). The collected BALF was centrifuged at 1,200 rpm and 4° C. for 10 minutes (Hirtachi; himac CR 5 DL). The sediment was re-suspended in 10 mL of a 0.1% bovine serum albumin-physiological saline, and an equivalent amount of Turk's solution was added to the suspension to stain leukocytes. The total number of leukocytes was counted under a microscope to determine the inhibition ratio. When the inhibition ratio≧60%, the results were represented by “++.” When 60%>the inhibition ratio≧30%, the results were represented by “+.”

T1 sequence (Q07343 330-659 limits assumed): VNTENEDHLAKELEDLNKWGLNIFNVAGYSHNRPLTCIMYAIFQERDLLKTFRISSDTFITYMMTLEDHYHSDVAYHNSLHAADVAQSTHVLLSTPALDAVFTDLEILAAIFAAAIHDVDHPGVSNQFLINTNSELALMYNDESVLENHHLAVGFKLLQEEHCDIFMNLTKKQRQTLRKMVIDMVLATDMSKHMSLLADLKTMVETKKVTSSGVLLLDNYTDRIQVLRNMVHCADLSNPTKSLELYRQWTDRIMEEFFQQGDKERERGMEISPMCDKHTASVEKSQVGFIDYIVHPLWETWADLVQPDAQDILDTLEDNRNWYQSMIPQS

As for `COc1ccc(C(=O)Cc2ccncc2)c2cc(C(F)(F)F)nn12` [80 (90), 1-(7-Methoxy-2-trifluoromethylpyrazolo[1,5-a]pyridin-4-yl)-2-(pyridin-4-yl)ethanone], in data set [1], the IC50 was under 0.1 µmol/L. The Inhibition ratio entry in data set [2] was “+++ (When the inhibition ratio≧90%, the results were represented by “+++.”)”.

In the case of `COc1ccc(/C(=C/c2ccncc2)c2ccccc2)c2cc(C(F)(F)F)nn12` [Example 84, (E)-7-methoxy-4-[1-phenyl-2-(pyridin-4-yl)vinyl]-2-trifluoromethylpyrazolo[1,5-a]pyridine], in data set [1], the IC50 is under 0.1 µmol/L.

For `COc1ccc(C(Cc2ccncc2)c2ccccc2)c2cc(C(F)(F)F)nn12` (centres unmarked) [Example 86, 7-Methoxy-4-[1-phenyl-2-(pyridin-4-yl)ethyl]-2-trifluoromethylpyrazolo[1,5-a]pyridine], the IC50 in data set [1] is under 0.1 µmol/L.

For the compound `COc1ccc(C(O)Cc2c(Cl)cncc2Cl)c2cc(C(F)(F)F)nn12` (centres unmarked) [Example 87, 2-(3,5-Dichloropyridin-4-yl)-1-(7-methoxy-2-trifluoromethylpyrazolo[1,5-a]pyridin-4-yl)ethanol], the IC50 in data set [1] was under 0.1 µmol/L.

Turning to `COc1ccc(CCc2cc[n+]([O-])cc2)c2cc(C(F)(F)F)nn12` [Example 91, 4-(2-(7-Methoxy-2-(trifluoromethyl)pyrazolo[1,5-a]pyridin-4-yl)ethyl)pyridine 1-oxide], the inhibition in vivo at 3 mg/kg in data set [3] was at least 60%. For the same compound, the IC50 in data set [1] is under 0.1 µmol/L.

Consider `COc1ccc(C(=O)Cc2c(Cl)c[n+]([O-])cc2Cl)c2cc(C(F)(F)F)nn12` [Example 92, 3,5-Dichloro-4-(2-(7-methoxy-2-(trifluoromethyl)pyrazolo[1,5-a]pyridin-4-yl)-2-oxoethyl)pyridine 1-oxide], for which the inhibition in vivo at 3 mg/kg in data set [3] is at least 60%. Also, the IC50 in data set [1] is under 0.1 µmol/L.

As for `COc1ccc(C(=O)Cc2cc[n+]([O-])cc2)c2cc(C(F)(F)F)nn12` [Example 93, 4-(2-(7-Methoxy-2-(trifluoromethyl)pyrazolo[1,5-a]pyridin-4-yl)-2-oxoethyl)pyridine 1-oxide], the melting point is 157 to 161 °C (dec.). Also, the inhibition in vivo at 3 mg/kg in data set [3] was at least 60%. Further, the IC50 in data set [1] was under 0.1 µmol/L.

For the compound `COc1ccc(CCc2c(Cl)cncc2Cl)c2cc(C(F)(F)F)nn12` [Example 95, 4-(2-(3,5-Dichloropyridin-4-yl)ethyl)-7-methoxy-2-(trifluoromethyl)pyrazolo[1,5-a]pyridine], the melting point was 158 to 160 °C (dec.).

Consider `COc1ccc(C(=O)Cc2ccncc2Cl)c2cc(C(F)(F)F)nn12` [Example 97, 2-(3-Chloropyridin-4-yl)-1-(7-methoxy-2-(trifluoromethyl)pyrazolo[1,5-a]pyridin-4-yl)ethanone], for which the melting point was in the range of 188 to 191 °C.

`CNc1ccc(C(=O)Cc2c(Cl)cncc2Cl)c2cc(C(F)(F)F)nn12` [Example 99, 2-(3,5-Dichloropyridin-4-yl)-1-(7-(methylamino)-2-(trifluoromethyl)pyrazolo[1,5-a]pyridin-4-yl)ethanone] returned a melting point of 220 to 223 °C. Further, the IC50 in data set [1] was under 0.1 µmol/L.

As to `CN(C)c1ccc(C(=O)Cc2c(Cl)cncc2Cl)c2cc(C(F)(F)F)nn12` [Example 100, 2-(3,5-Dichloropyridin-4-yl)-1-(7-(dimethylamino)-2-(trifluoromethyl)pyrazolo[1,5-a]pyridin-4-yl)ethanone], the melting point is 234 to 238 °C.

Regarding `COc1ccc(CCc2c(Cl)cncc2Cl)c2cc(C(F)F)nn12` [Example 102, 4-(2-(3,5-Dichloropyridin-4-yl)ethyl)-2-(difluoromethyl)-7-methoxypyrazolo[1,5-a]pyridine], the melting point was in the range of 153 to 156 °C.

`COc1ccc(CCc2ccncc2)c2cc(C(F)F)nn12` [Example 104, 2-(Difluoromethyl)-7-methoxy-4-(2-(pyridin-4-yl)ethyl)pyrazolo[1,5-a]pyridine]: the melting point lay within 121 to 123 °C.

Turning to `COc1ccc(C(=O)Cc2c(Cl)cncc2Cl)c2cc(C(F)F)nn12` [Example 107, 2-(3,5-dichloropyridin-4-yl)-1-(2-(difluoromethyl)-7-methoxypyrazolo[1,5-a]pyridin-4-yl)ethanone], the melting point was 208 to 211 °C (dec.).

As for `COc1ccc(C(=O)Cc2c(Cl)c[n+]([O-])cc2Cl)c2cc(C(F)F)nn12` [Example 108, 3,5-Dichloro-4-(2-(2-(difluoromethyl)-7-methoxypyrazolo[1,5-a]pyridin-4-yl)-2-oxoethyl)pyridine 1-oxide], in data set [3], the inhibition in vivo at 3 mg/kg is at least 60%. Also, the IC50 in data set [1] is under 0.1 µmol/L.

Regarding `COc1ccc(C(=O)Cc2ccncc2)c2cc(C(F)F)nn12` [Example 109, 1-(2-(Difluoromethyl)-7-methoxypyrazolo[1,5-a]pyridin-4-yl)-2-(pyridin-4-yl)ethanone], the melting point was 186 to 191 °C (dec.).

As to `COc1ccc(C(=O)Cc2ccncc2Cl)c2cc(C(F)F)nn12` [Example 111, 2-(3-Chloropyridin-4-yl)-1-(2-(difluoromethyl)-7-methoxypyrazolo[1,5-a]pyridin-4-yl)ethanone], the melting point was 191 to 194 °C (dec.).

In the case of `COc1ccc(C(=O)Cc2ccncc2)c2cc(C3CC3)nn12` [Example 121, 1-(2-Cyclopropyl-7-methoxypyrazolo[1,5-a]pyridin-4-yl)-2-(pyridin-4-yl)ethanone], the inhibition in vivo at 3 mg/kg in data set [3] is at least 60%. In data set [1], the IC50 is under 0.1 µmol/L.

As for `COc1ccc(C(=O)Cc2c(Cl)cncc2Cl)c2c(Cl)c(C3CC3)nn12` [Example 122, 1-(3-Chloro-2-cyclopropyl-7-methoxypyrazolo[1,5-a]pyridin-4-yl)-2-(3,5-dichloropyridin-4-yl)ethanone], the inhibition in vivo at 3 mg/kg in data set [3] was at least 60%. For the same compound, the IC50 in data set [1] was under 0.1 µmol/L.

`CNc1ccc(C(=O)Cc2c(Cl)cncc2Cl)c2cc(C3CC3)nn12` [Example 123, 1-(2-Cyclopropyl-7-(methylamino)pyrazolo[1,5-a]pyridin-4-yl)-2-(3,5-dichloropyridin-4-yl)ethanone] showed a melting point of 196 to 200 °C.

The compound `CN(C)c1ccc(C(=O)Cc2c(Cl)cncc2Cl)c2cc(C3CC3)nn12` [Example 124, 1-(2-Cyclopropyl-7-(dimethylamino)pyrazolo[1,5-a]pyridin-4-yl)-2-(3,5-dichloropyridin-4-yl)ethanone] yielded a melting point of 216 to 220 °C.

With `COc1ccc(C(=O)Cc2c(Cl)c[n+]([O-])cc2Cl)c2cc(C#N)nn12` [Example 142, 3,5-Dichloro-4-(2-(2-cyano-7-methoxypyrazolo[1,5-a]pyridin-4-yl)-2-oxoethyl)pyridine 1-oxide], in data set [3], the inhibition in vivo at 3 mg/kg was at least 60%. In data set [1], the IC50 was under 0.1 µmol/L.

A word on the melting point: it is the temperature, or range, at which the solid turns liquid.
